These are literature values, as cited in US20090148502A1, “COMPOSITIONS AND METHODS FOR TREATING LACERATIONS, ABRASIONS, AVULSIONS, BURNS, ULCERS, AND CASES OF EXCESSIVE BLEEDING” (Hemo Nanoscience, LLC, priority 2006, published 2009).

For data set [1] the following is noted: in vivo.
Another data set deals with wound. Particulars: 0.04% (wt/wt), topically applied.

For the compound `CCCCN1CCCCC1C(=O)Nc1c(C)cccc1C` (centres unmarked) [bupivacaine], in data set [1], the duration of action was 6 to 8 h.

In the case of “Human EGF: human epidermal growth factor”, in the data set on wound, the “effect on healing time” value is recorded as “successful in reducing the healing time”.
